Source: patent US20240099298A1, “BIOINSECTICIDAL COMPOSITIONS CONTAINING MONOTERPENES AND METHODS OF USE THEREOF” (priority 2017, published 2024)
Converted amounts (≈) assume the structure as drawn.

Legend:
[1] = target: T1, rGABARAP^Y174A (Frankliniella occidentalis, UniProt A0A6J1T1Q2); experiment: ITC binding to rGABARAP mutant; conditions: read-out: Kd value, ITC
Protocol: The isothermal titration thermal binding measurements were performed with an ITC-200 calorimeter (GE Healthcare, Boston, MA) at 25° C. in a buffer containing 50 mM Tris-HCl and 100 mM NaCl (pH 7.4). […] The MicroCal Origin 7.0 software system was used for data processing. The first run was a pre-run and was excluded from the final data. The amount of protein in the sample pool was constant. […] The experimental bimolecular interaction data from the 18 drops were used to calculate the dissociation constant. The dissociation constant […] was calculated as 1/K (Li, et al. (2018) RSC Advances 8:18952-18958).
(§1) Preparation of rGABARAP Mutant and Interaction Between ME and rGABARAP Mutant. […] DNAman was used to convert the nucleic acid sequence into an amino acid sequence and find the Y174 site. Y174 was mutated to A174. The rGABARAP mutant gene loaded into the pMCSG19 vector and the His tags at both ends of the sequence were retained to construct a prokaryotic expression plasmid. The carrier contained a maltose binding protein (MBP) tag that was not cut for verification. However, MBP and ME were used as treatment controls. The mutant plasmid was constructed in Sangon Biotech (Shanghai, China). The protein expression, purification, and desalting procedures of rGABARAP^Y174A mutant and rGABARAP were the same. Subsequently, the binding kinetics of ME and rGABARAP^Y174A were tested by MST and ITC.

[2] = test system: Tetranychus cinnabarinus (Boisduval) (spider mites); conditions: spider mites, exposed one hour
[3] = test system: Bactrocera cucuribitae (Coquillett) (melon fly); conditions: melon fly
[4] = test system: Musca domestica (Linnaeus) (housefly); conditions: adult housefly, exposed one hour, mortality in 24 hours
[5] = test system: Blatta lateralis (Walker) (cockroach); conditions: cockroach second instar nymphs, exposed one hour
[6] = test system: Aedes aegypti (Linnaeus) (mosquito); conditions: adult mosquito, exposed 30 minutes, mortality in 24 hours
[7] = target: T1, rGABARAP^Y174A; experiment: MST binding to rGABARAP mutant; conditions: read-out: Kd value, MST
Protocol: Interaction between ME and rGABARAP. A Nano Temper Monolith NT.115 MST system (Nano Temper, Munich, Germany) was used to assess the binding affinities between the target compounds and rGABARAP according to the published procedures (Zan, et al. (2020) Journal of Agricultural and Food Chemistry 68:6280-6285). Spinosyn A was used as a chemical positive control. Spinosyn A (≥1 nM) can trigger a change of the Cl^− current of insect neuron GABAAR, which is considered to be an insecticidal action mechanism of spinosyn A (Watson (2001) Pesticide Biochemistry and Physiology 71:20-28). Ovalbumin (OVA) (Sangon Biotech, Shanghai, China) is a control protein consisting of 385 amino acid residues. The interaction between OVA and ME was used as a protein control experiment (Huntington, et al. (1995) Protein Science 4:613-621).
as §1

[8] = test system: Megalurothrips usitatus (Bagrall) (thrips); experiment: Median lethal concentration fumigation test, thrips; conditions: adult thrips, exposed one hour, mortality observed in 24 hours
[9] = test system: Thrips, M. usitatus; experiment: Headspace fumigation toxicity of linalool mixed in peanut oil; assay type: in vivo, Megalurothrips usitatus; conditions: thrips exposed to headspace above the solution
[10] = T 22-25 °C; cited from earlier work
[11] = test system: adult T. palmi; conditions: cited from earlier work

T1 sequence (A0A6J1T1Q2 entry or part of it, stated change not applied): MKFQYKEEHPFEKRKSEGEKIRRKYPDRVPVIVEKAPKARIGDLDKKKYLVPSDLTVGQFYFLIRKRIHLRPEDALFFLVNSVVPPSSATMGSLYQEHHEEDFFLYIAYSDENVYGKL

C=CC(C)(O)CCC=C(C)C (stereo not drawn) [Linalool, 3,7-dimethylocta-1,6-dien-3-o1]
Kd [1]: 8.92 µM | LC50 (fiducial limits) [2]: 550 µg/mL (≈ 3570 µM) | LC90 (fiducial limits) [2]: 4330 µg/mL (≈ 28100 µM) | LC50 (fiducial limits) [3]: >243 µg/mL | LC90 (fiducial limits) [3]: >243 µg/mL | LC50 (fiducial limits) [4]: 30.6 µg/mL (≈ 198 µM) | LC90 (fiducial limits) [4]: 176 µg/mL (≈ 1140 µM) | LC50 (fiducial limits) [5]: 345 µg/mL (≈ 2240 µM) | LC90 (fiducial limits) [5]: 1700 µg/mL (≈ 11000 µM) | LC50 (fiducial limits) [6]: >243 µg/mL | LC90 (fiducial limits) [6]: >243 µg/mL | Kd [7]: 16.3 ± 6.79 µM | LC50 (fiducial limits) [8]: 2.50 µg/mL (≈ 16.2 µM) | LC90 (fiducial limits) [8]: 6.4 µg/mL (≈ 41.5 µM) | LC50 of linalool mixed in peanut oil [9]: 4.7% | Vp (Pa)/T (° C.) [10]: 21.28/22-25 Pa | LC50, fumigation toxicity [11]: 5.5 µg/mL (≈ 35.7 µM) | fold more effective than dichlorvos [11]: 15.2 fold
